Source: PubChem BioAssay (NCI)
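At the GI50, growth is halved. TGI marks complete inhibition of growth.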

Columns and labels:
Experiment in all cases: DTP human tumour cell line panel, 384-well format
786-0 renal = tested on: 786-0 renal
A498 renal = tested on: A498 renal
A549 NSCLC = tested on: A549 NSCLC
ACHN renal = tested on: ACHN renal
BT-549 breast = tested on: BT-549 breast
CAKI-1 renal = tested on: CAKI-1 renal
CCRF-CEM leukemia = tested on: CCRF-CEM leukemia
COLO 205 colon = tested on: COLO 205 colon
DU-145 prostate = tested on: DU-145 prostate
EKVX NSCLC = tested on: EKVX NSCLC
HCC-2998 colon = tested on: HCC-2998 colon
HCT-116 colon = tested on: HCT-116 colon
HCT-15 colon = tested on: HCT-15 colon
HL-60(TB) leukemia = tested on: HL-60(TB) leukemia
HOP-62 NSCLC = tested on: HOP-62 NSCLC
HOP-92 NSCLC = tested on: HOP-92 NSCLC
HS 578T breast = tested on: HS 578T breast
HT29 colon = tested on: HT29 colon
IGROV1 ovarian = tested on: IGROV1 ovarian
K-562 leukemia = tested on: K-562 leukemia
KM12 colon = tested on: KM12 colon
LOX IMVI melanoma = tested on: LOX IMVI melanoma
M14 melanoma = tested on: M14 melanoma
MALME-3M melanoma = tested on: MALME-3M melanoma
MCF7 breast = tested on: MCF7 breast
MDA-MB-231 breast = tested on: MDA-MB-231 breast
MDA-MB-435 melanoma = tested on: MDA-MB-435 melanoma
MDA-MB-468 breast = tested on: MDA-MB-468 breast
MOLT-4 leukemia = tested on: MOLT-4 leukemia
NCI-H226 lung = tested on: NCI-H226 lung
NCI-H23 lung = tested on: NCI-H23 lung
NCI-H322M lung = tested on: NCI-H322M lung
NCI-H460 NSCLC = tested on: NCI-H460 NSCLC
NCI-H522 lung = tested on: NCI-H522 lung
NCI/ADR-RES ovarian = tested on: NCI/ADR-RES ovarian
OVCAR-3 ovarian = tested on: OVCAR-3 ovarian
OVCAR-4 ovarian = tested on: OVCAR-4 ovarian
OVCAR-5 ovarian = tested on: OVCAR-5 ovarian
OVCAR-8 ovarian = tested on: OVCAR-8 ovarian
PC-3 prostate = tested on: PC-3 prostate
RPMI-8226 leukemia = tested on: RPMI-8226 leukemia
RXF 393 renal = tested on: RXF 393 renal
SF-268 CNS = tested on: SF-268 CNS
SF-295 CNS = tested on: SF-295 CNS
SF-539 CNS = tested on: SF-539 CNS
SK-MEL-28 melanoma = tested on: SK-MEL-28 melanoma
SK-MEL-5 melanoma = tested on: SK-MEL-5 melanoma
SK-OV-3 ovarian = tested on: SK-OV-3 ovarian
SN12C renal = tested on: SN12C renal
SNB-19 CNS = tested on: SNB-19 CNS
SNB-75 CNS = tested on: SNB-75 CNS
SW-620 colon = tested on: SW-620 colon
T-47D breast = tested on: T-47D breast
TK-10 renal = tested on: TK-10 renal
U251 glioblastoma = tested on: U251 glioblastoma
UACC-257 melanoma = tested on: UACC-257 melanoma
UACC-62 melanoma = tested on: UACC-62 melanoma
UO-31 renal = tested on: UO-31 renal

## O=C(Nc1cc(Oc2cc(F)c(NC(=O)C3(C(=O)Nc4ccc(F)cc4)CC3)cc2F)ccn1)C1CC1
786-0 renal
  GI50: 2 µM
  TGI: 8.41 µM
A498 renal
  GI50: 3.02 µM
  TGI: 8.19 µM
A549 NSCLC
  GI50: 1.7 µM
  TGI: 8.94 µM
ACHN renal
  GI50: 1.66 µM
  TGI: 7.31 µM
BT-549 breast
  GI50: 2.37 µM
  TGI: 4.71 µM
CAKI-1 renal
  GI50: 1.51 µM
  TGI: 3.28 µM
CCRF-CEM leukemia
  GI50: 0.445 µM
  TGI: 1.47 µM
COLO 205 colon
  GI50: 0.66 µM
  TGI: 2.87 µM
DU-145 prostate
  GI50: 1.07 µM
  TGI: 61.4 µM
EKVX NSCLC
  GI50: 1.73 µM
  TGI: 4.38 µM
HCC-2998 colon
  GI50: 0.647 µM
  TGI: 4.23 µM
HCT-116 colon
  GI50: 0.801 µM
  TGI: 54.9 µM
HCT-15 colon
  GI50: 1.93 µM
  TGI: 5.65 µM
HL-60(TB) leukemia
  GI50: 1.15 µM
  TGI: 2.38 µM
HOP-62 NSCLC
  GI50: 0.306 µM
  TGI: 1.62 µM
HOP-92 NSCLC
  GI50: 2.34 µM
  TGI: > 100 µM
HS 578T breast
  GI50: 1.35 µM
  TGI: 2.71 µM
HT29 colon
  GI50: 0.659 µM
  TGI: 39 µM
IGROV1 ovarian
  GI50: 1.26 µM
  TGI: 6.93 µM
K-562 leukemia
  GI50: 0.32 µM
  TGI: 13.9 µM
KM12 colon
  TGI: 2.72 µM
LOX IMVI melanoma
  GI50: 1.25 µM
  TGI: 2.71 µM
M14 melanoma
  GI50: 0.349 µM
  TGI: 1.43 µM
MALME-3M melanoma
  GI50: 0.249 µM
  TGI: 1.1 µM
MCF7 breast
  GI50: 0.376 µM
  TGI: 2.09 µM
MDA-MB-231 breast
  GI50: 0.472 µM
  TGI: 91.7 µM
MDA-MB-435 melanoma
  GI50: 1.2 µM
  TGI: 2.82 µM
MDA-MB-468 breast
  GI50: 1.98 µM
  TGI: 3.5 µM
MOLT-4 leukemia
  GI50: 0.624 µM
  TGI: 1.92 µM
NCI-H226 lung
  GI50: 2.21 µM
  TGI: 7.21 µM
NCI-H23 lung
  GI50: 0.173 µM
  TGI: 0.578 µM
NCI-H322M lung
  GI50: 1.6 µM
  TGI: 6.88 µM
NCI-H460 NSCLC
  GI50: 1.98 µM
  TGI: 4.31 µM
NCI-H522 lung
  GI50: 2.06 µM
  TGI: 4.17 µM
NCI/ADR-RES ovarian
  GI50: 1.78 µM
  TGI: 6.99 µM
OVCAR-3 ovarian
  GI50: 2.35 µM
  TGI: 6 µM
OVCAR-4 ovarian
  GI50: 3.98 µM
  TGI: 8.26 µM
OVCAR-5 ovarian
  GI50: 2.35 µM
  TGI: 14.8 µM
OVCAR-8 ovarian
  GI50: 1.95 µM
  TGI: 9.88 µM
PC-3 prostate
  GI50: 3.3 µM
  TGI: 8.13 µM
RPMI-8226 leukemia
  GI50: 1.93 µM
  TGI: 3.37 µM
RXF 393 renal
  GI50: 1.2 µM
  TGI: 2.51 µM
SF-268 CNS
  GI50: 0.364 µM
  TGI: 0.962 µM
SF-295 CNS
  GI50: 1.2 µM
  TGI: 5.14 µM
SF-539 CNS
  GI50: 1.46 µM
  TGI: 2.93 µM
SK-MEL-28 melanoma
  GI50: 1.4 µM
  TGI: 2.78 µM
SK-MEL-5 melanoma
  GI50: 0.512 µM
  TGI: 1.94 µM
SK-OV-3 ovarian
  GI50: 3.12 µM
  TGI: 9.2 µM
SN12C renal
  GI50: 1.65 µM
  TGI: 4.5 µM
SNB-19 CNS
  GI50: 2.75 µM
  TGI: 11.4 µM
SNB-75 CNS
  GI50: 1.62 µM
  TGI: 3.03 µM
SW-620 colon
  GI50: 2.38 µM
  TGI: 6.96 µM
T-47D breast
  GI50: 1.38 µM
  TGI: 5.17 µM
TK-10 renal
  GI50: 3.13 µM
  TGI: 20.8 µM
U251 glioblastoma
  GI50: 2.5 µM
  TGI: 6.32 µM
UACC-257 melanoma
  GI50: 1.11 µM
  TGI: 2.68 µM
UACC-62 melanoma
  GI50: 0.394 µM
  TGI: 1.6 µM
UO-31 renal
  GI50: 2.07 µM
  TGI: 7.07 µM
